Results published in ChEMBL document CHEMBL3779807, “Synthesis and structure-activity relationship of α-keto amides as enterovirus 71 3C protease inhibitors” (Bioorg Med Chem Lett, 2016).

Tests used:
Enterovirus A71 = experiment: Antiviral activity against EV71 pseudotype virus infected in RD cells after 24 hrs by Bright-Glo luciferase assay; assay type: functional, organism-based; settings: Enterovirus A
[1] = Inhibition of EV71 3C protease using NMA-IEALFQGPPK(DNP)FR as substrate preincubated for 30 mins followed by addition of substrate measured after 2 hrs by FRET assay; parameters: species or system Enterovirus A71
[2] = Cytotoxicity against human RD cells assessed viable cells after 24 hrs by WST-1 assay; assay type: cell-based

SMILES	EC50 (Enterovirus A71) [µM]	IC50 [1] [µM]	CC50 at 24 h [2] [µM]
CCCNC(=O)C(=O)[C@H](C[C@@H]1CCCNC1=O)NC(=O)[C@H](Cc1ccc(F)cc1)NC(=O)/C=C/c1ccccc1	1.08	1.88	> 100
CC(C)(C)NC(=O)C(=O)[C@H](C[C@@H]1CCCNC1=O)NC(=O)[C@H](Cc1ccccc1)NC(=O)/C=C/c1ccccc1	> 20	> 20	> 100
CCCCCNC(=O)C(=O)[C@H](C[C@@H]1CCCNC1=O)NC(=O)[C@H](Cc1ccccc1)NC(=O)/C=C/c1ccccc1	> 20	> 20	> 100
O=C(/C=C/c1ccccc1)N[C@@H](Cc1ccccc1)C(=O)N[C@@H](C[C@@H]1CCCNC1=O)C(=O)C(=O)NCc1ccccc1	5.42	7.83	> 100
CC(C)(C)OC(=O)N[C@@H](Cc1ccc(F)cc1)C(=O)N[C@@H](C[C@@H]1CCCNC1=O)C(=O)C(=O)NC1CC1	1.68	1.78	> 100
CCCNC(=O)C(=O)[C@H](C[C@@H]1CCCNC1=O)NC(=O)[C@H](Cc1ccccc1)NC(=O)/C=C/c1ccccc1	4.59	6.22	> 100
CCCCCCNC(=O)C(=O)[C@H](C[C@@H]1CCCNC1=O)NC(=O)[C@H](Cc1ccccc1)NC(=O)/C=C/c1ccccc1	> 20	> 20	> 100
CCCCNC(=O)C(=O)[C@H](C[C@@H]1CCCNC1=O)NC(=O)[C@H](Cc1ccccc1)NC(=O)/C=C/c1ccccc1	11.6	8.21	> 100
O=C(/C=C/c1ccccc1)NC(Cc1ccccc1)C(=O)NC(CC1CCCNC1=O)C(=O)C(=O)Nc1ccc([N+](=O)[O-])cc1 (single isomer, unassigned)	> 20	> 20	> 100
O=C(/C=C/c1ccccc1)N[C@@H](Cc1ccccc1)C(=O)N[C@@H](C[C@@H]1CCCNC1=O)C(=O)C(=O)Nc1ccccc1	> 20	> 20	> 100
O=C(/C=C/c1ccccc1)N[C@@H](Cc1ccccc1)C(=O)N[C@@H](C[C@@H]1CCCNC1=O)C(=O)C(=O)NC1CCCCC1	2.63	4.86	> 100
CC(C)CNC(=O)C(=O)[C@H](C[C@@H]1CCCNC1=O)NC(=O)[C@H](Cc1ccccc1)NC(=O)/C=C/c1ccccc1	11	5.07	> 100

Now from value to compound, other results behind:

EC50 (Enterovirus A71) [µM]	IC50 [1] [µM]	SMILES	CC50 at 24 h [2] [µM]
2.78	3.71	O=C(/C=C/c1ccccc1)N[C@@H](Cc1ccc(F)cc1)C(=O)N[C@@H](C[C@@H]1CCCNC1=O)C(=O)C(=O)NC1CCCCC1	> 100
> 20	> 20	CCCCCCCCCCCCNC(=O)C(=O)[C@H](C[C@@H]1CCCNC1=O)NC(=O)[C@H](Cc1ccccc1)NC(=O)/C=C/c1ccccc1	> 100
> 20	> 20	Cc1ccc(NC(=O)C(=O)[C@H](C[C@@H]2CCCNC2=O)NC(=O)[C@H](Cc2ccccc2)NC(=O)/C=C/c2ccccc2)cc1	> 100
6.45	8.75	CC(C)NC(=O)C(=O)[C@H](C[C@@H]1CCNC1=O)NC(=O)[C@H](Cc1ccccc1)NC(=O)/C=C/c1ccccc1	> 100
> 20	> 20	O=C(/C=C/c1ccccc1)NC(Cc1ccccc1)C(=O)NC(CC1CCNC1=O)C(=O)C(=O)NCc1ccccc1 (single isomer, unassigned)	> 100
1.32	1.42	CC(C)NC(=O)C(=O)[C@H](CC1CCCNC1=O)NC(=O)[C@H](Cc1ccc(F)cc1)NC(=O)OCc1ccccc1 (single isomer, unassigned)	> 100
8.12	12.7	O=C(/C=C/c1ccccc1)N[C@@H](Cc1ccccc1)C(=O)N[C@@H](C[C@@H]1CCNC1=O)C(=O)C(=O)NC1CCCCC1	> 100
4.5	6.3	O=C(/C=C/c1ccccc1)N[C@@H](Cc1ccccc1)C(=O)N[C@@H](C[C@@H]1CCCNC1=O)C(=O)C(=O)NCc1ccco1	> 100
1.12	1.32	CC(C)NC(=O)C(=O)[C@H](C[C@@H]1CCCNC1=O)NC(=O)[C@H](Cc1ccc(F)cc1)NC(=O)/C=C/c1ccccc1	> 100
9.59	4.08	CNC(=O)C(=O)[C@H](C[C@@H]1CCCNC1=O)NC(=O)[C@H](Cc1ccccc1)NC(=O)/C=C/c1ccccc1	> 100
3.57	3.32	O=C(/C=C/c1ccccc1)N[C@@H](Cc1ccccc1)C(=O)N[C@@H](C[C@@H]1CCCNC1=O)C(=O)C(=O)NC1CC1	> 100
1.66	1.34	CC(C)NC(=O)C(=O)[C@H](C[C@@H]1CCCNC1=O)NC(=O)[C@H](Cc1ccccc1)NC(=O)/C=C/c1ccccc1	> 100
15.5	17.6	CCCCNC(=O)C(=O)[C@H](C[C@@H]1CCNC1=O)NC(=O)[C@H](Cc1ccccc1)NC(=O)/C=C/c1ccccc1	> 100
1.55	1.52	O=C(/C=C/c1ccccc1)N[C@@H](Cc1ccc(F)cc1)C(=O)N[C@@H](C[C@@H]1CCCNC1=O)C(=O)C(=O)NC1CC1	> 100
> 20	> 20	O=C(/C=C/c1ccccc1)N[C@@H](Cc1ccccc1)C(=O)N[C@@H](C[C@@H]1CCNC1=O)C(=O)C(=O)Nc1ccccc1	> 100
